One assay deals with T1, ERK2 (Homo sapiens, UniProt P28482).
T1 construct: purchased Invitrogen PV3595B
The experiment in a line: ERK2 kinase assay (TR-FRET). The conditions noted are these: Abs_IC50, ATP 10 μM; ±0.682, n=17. The class given is biochemical. How it is done: The purpose of this assay is to measure the ability of compounds to inhibit ERK2 kinase activity. Perform the ERK2 kinase assay in vitro using a TR-FRET assay. Start all reactions (12.5 μL) by adding 5 µL of ERK2 enzyme (Invitrogen, #PV3595B, final conc 50 ng/mL) plus substrate GFP-ATF2 (Invitrogen, #PV4445, final conc 0.2 μM), 5 µL of ATP solution (Invitrogen, #PV3227, final conc 10 μM) prepared in kinase buffer (50 mM Hepes pH 7.4, 5 mM MgCl2, 0.1 mM EGTA, 0.01% Triton X-100, 1 mM DTT) and 2.5 μL of testing compounds in DMSO solution ([…], v/v) in a 384-well PROXIPLATE™ (Perkin Elmer, #GRN6260). Incubate reactions at room temperature for 60 minutes. Stop reactions by addition of […] of stop buffer (10 mM EDTA, 2 nM Tb-anti-pATF2 (pThr71) antibody, Invitrogen, #PV4448) in TR-FRET dilution buffer (Invitrogen, # PV3574). Incubate the plates at room temperature for an additional 60 minutes and read ON ENVISION® (PerkinElmer) plate reader at the excitation wavelength of 340 nm. Calculate a TR-FRET ratio by dividing the GFP acceptor emission signal (at 520 nm) by the Tb donor emission signal (at 495 nm). Calculate percent inhibition using compound wells relative to on-plate Max (DMSO control) and Min (No enzyme added) control wells TR-FRET ratio data {% inhibition=100−[(test compound−median Min)/(median Max−Min)×100]}. […]
For orientation: Time-resolved FRET reads energy transfer from a long-lived donor to a nearby acceptor.

For assay [1], the system named is human non-small cell lung cancer cells A549. The experiment in a line: Xenograft tumor model A549. The class given is in vivo, female CB-17 SCID mice. To be noted: oral. How it is done: The purpose of this assay is to measure reduction in tumor volume in response to test compound administration. Expand human colorectal cancer cells HCT116 (ATCC, #CCL-247) or human non-small cell lung cancer cells NCI-H358 (ATCC, # CRL-5807) in culture, harvest and inject 5×10e^6 cells in 200 μL of 1:1 HBSS+matrigel solution subcutaneously on to the rear right flank of female athymic nude mice (22-25 gm, Harlan Laboratories). Expand human pancreatic cancer cells SW1990 (ATCC, # CRL-2172) in culture, harvest and inject 2×10e^6 cells in 200 μL of 1:1 HBSS+matrigel solution subcutaneously on to the rear right flank of female athymic nude mice (22-25 gm, Harlan Laboratories). Expand human pancreatic cancer cells MIA PACA-2 (ATCC, # CRL-1420) or human non-small cell lung cancer cells A549 (ATCC, # CCl-185) in culture, harvest and inject 5×10e^6 cells in 200 μL of 1:1 HBSS+matrigel solution subcutaneously on to the rear right flank of female CB-17 SCID mice (22-25 gm, Charles River Laboratories International Inc.). Expand human melanoma cells A-375 (ATCC, # CRL-1619) in culture, harvest and inject 5×10e^6 cells in 200 μL of 1:1 HBSS+matrigel solution subcutaneously on to the rear right flank of female NIH nude rats (140-160 gm, Taconic Farms). […] Tumor response is determined by tumor volume measurement performed twice a week during the course of treatment.

Assay [2] deals with ERK substrate (RSK) phosphorylation in HCT116 colorectal cancer cell line. Briefly: ERK1/2 cell mechanistic assay (pRSK1 Alphascreen assay). The class given is cell-based. The conditions noted are these: Homo sapiens, HCT-116, 2 h; HCT116 cells, two hours, Rel IC50; read-out: pRSK1 inhibition IC50. How it is done: The purpose of this assay is to measure the ability of compounds to inhibit ERK signaling in cancer cells in vitro. Carry out the pRSK1 Alphascreen assay using the HCT116 colorectal cancer cell line (ATCC, # CCL-247). Routinely culture HCT116 cells in Dulbecco's Modified Eagle's Medium (DMEM) (Hyclone, #SH30022) growth medium containing 5% Fetal Bovine Serum (FBS) (Gibco, #16000-044) in T-150 flasks and incubate in a 5% CO2 incubator at 37° C. Harvest cells when they become confluent and freeze in freezing medium at 1×10e^7 cells/mL as “assay ready frozen cells” and store in liquid nitrogen. To run the assay, plate 40,000 HCT116 cells/well in a 96-well tissue culture plate and incubate at 37° C. in a 5% CO2 incubator overnight. Test compounds at 10 concentrations starting at a 20 μM top concentration and utilize a 1:3 dilution scheme (20 μM to 0.001 μM) with a final DMSO concentration of 0.5% (v/v). Add compounds in 20 μL serum free growth medium and incubate at 37° C. for two hours. Remove growth medium and add 50 μL of 1× lysis buffer [Cell Signaling Technology, #9803] containing 1×holt protease and phosphatase inhibitor cocktail [Thermo, #78441] to each well and incubate at room temperature for 10 minutes on a shaker. […] Measure the fluorescence intensity in each well by reading the plates in ENVISION® (PerkinElmer) plate reader. […]
(In Alpha technology, singlet oxygen from a donor bead excites a nearby acceptor bead.)

The term IC50 denotes the concentration at which inhibition is half-maximal.

T1 sequence (P28482 whole entry): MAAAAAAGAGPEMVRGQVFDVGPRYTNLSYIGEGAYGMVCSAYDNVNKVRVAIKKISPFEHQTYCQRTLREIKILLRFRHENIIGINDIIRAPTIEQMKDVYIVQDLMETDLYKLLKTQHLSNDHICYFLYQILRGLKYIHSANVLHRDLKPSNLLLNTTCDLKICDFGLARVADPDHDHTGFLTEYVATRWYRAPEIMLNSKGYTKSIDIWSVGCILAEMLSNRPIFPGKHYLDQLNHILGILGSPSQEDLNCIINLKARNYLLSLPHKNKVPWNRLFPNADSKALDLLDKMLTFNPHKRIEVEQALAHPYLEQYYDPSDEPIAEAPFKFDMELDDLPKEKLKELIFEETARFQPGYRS

Regarding `COCCN1C(=O)c2cc(-c3ccnc(Nc4ccnn4C)c3)sc2C1(C)C` [Example 1, 5-(2-Methoxyethyl)-6,6-dimethyl-2-{2-[(1-methyl-1H-pyrazol-5-yl)amino]pyridin-4-yl}-5,6-dihydro-4H-thieno[2,3-c]pyrrol-4-one], the IC50 was found to be 1.93 nM at ERK2 and 261 nM in assay [2]. The “Delta T/C (%)” value in assay [1] (A549, 10 mg/kg BID, p 0.471) worked out at 13%; in assay [1] (A549, 30 mg/kg BID, p <0.001), 66%.
